Results from the NIST ThermoML archive (doi:10.1016/j.jct.2017.08.004).

Assay: molar heat capacity at constant pressure
Conditions: 101.33 kPa, Crystal

OC[C@@H](O)[C@@H](O)CO [meso-1,2,3,4-butanetetrol]
Conditions	molar heat capacity at constant pressure [J/K/mol]
1 K, relaxation calorimetry	0.00103
1.924 K, relaxation calorimetry	0.005451
2 K, relaxation calorimetry	0.006099
2.124 K, relaxation calorimetry	0.007391
2.347 K, relaxation calorimetry	0.009418
2.604 K, relaxation calorimetry	0.01294
2.892 K, relaxation calorimetry	0.01782
3 K, relaxation calorimetry	0.01982
3.203 K, relaxation calorimetry	0.02425
3.549 K, relaxation calorimetry	0.03325
3.937 K, relaxation calorimetry	0.04561
4 K, relaxation calorimetry	0.04786
4.364 K, relaxation calorimetry	0.06293
4.842 K, relaxation calorimetry	0.08785
5 K, relaxation calorimetry	0.09724
5.372 K, relaxation calorimetry	0.1225
5.959 K, relaxation calorimetry	0.1717
6 K, relaxation calorimetry	0.1763
6.613 K, relaxation calorimetry	0.2418
7 K, relaxation calorimetry	0.2944
7.34 K, relaxation calorimetry	0.3445
8 K, relaxation calorimetry	0.4614
8.147 K, relaxation calorimetry	0.493
9 K, relaxation calorimetry	0.6863
9.042 K, relaxation calorimetry	0.6996
10 K, relaxation calorimetry	0.9714
10.11 K, relaxation calorimetry	0.9995
11.21 K, relaxation calorimetry	1.394
12.45 K, relaxation calorimetry	1.929
13.81 K, relaxation calorimetry	2.607
15 K, relaxation calorimetry	3.273
15.35 K, relaxation calorimetry	3.484
17.04 K, relaxation calorimetry	4.582
18.93 K, relaxation calorimetry	5.892
20 K, relaxation calorimetry	6.679
21.01 K, relaxation calorimetry	7.451
23.34 K, relaxation calorimetry	9.268
25 K, relaxation calorimetry	10.62
25.88 K, relaxation calorimetry	11.3
28.73 K, relaxation calorimetry	13.63
30 K, relaxation calorimetry	14.7
31.9 K, relaxation calorimetry	16.25
35 K, relaxation calorimetry	18.79
35.42 K, relaxation calorimetry	19.19
39.33 K, relaxation calorimetry	22.36
40 K, relaxation calorimetry	22.84
43.67 K, relaxation calorimetry	25.77
45 K, relaxation calorimetry	26.81
48.45 K, relaxation calorimetry	29.39
50 K, relaxation calorimetry	30.63
53.77 K, relaxation calorimetry	33.35
55 K, relaxation calorimetry	34.26
59.7 K, relaxation calorimetry	37.69
60 K, relaxation calorimetry	37.94
65 K, relaxation calorimetry	41.5
66.26 K, relaxation calorimetry	42.34
70 K, relaxation calorimetry	44.95
73.58 K, relaxation calorimetry	47.19
75 K, relaxation calorimetry	48.3
80 K, relaxation calorimetry	51.54
81.69 K, relaxation calorimetry	52.8
85 K, relaxation calorimetry	54.68
90 K, relaxation calorimetry	57.74
90.67 K, relaxation calorimetry	58.3
95 K, relaxation calorimetry	60.72
100 K, relaxation calorimetry	63.64
100.62 K, relaxation calorimetry	63.74
110 K, relaxation calorimetry	69.28
110.75 K, relaxation calorimetry	69.63
120 K, relaxation calorimetry	74.73
120.81 K, relaxation calorimetry	75.51
130 K, relaxation calorimetry	80.03
130.85 K, relaxation calorimetry	80.63
140 K, relaxation calorimetry	85.23
140.98 K, relaxation calorimetry	85.76
150 K, relaxation calorimetry	90.34
151.1 K, relaxation calorimetry	90.49
160 K, relaxation calorimetry	95.4
161.19 K, relaxation calorimetry	95.3
170 K, relaxation calorimetry	100.41
171.29 K, relaxation calorimetry	100.67
180 K, relaxation calorimetry	105.4
181.37 K, relaxation calorimetry	106.96
188.15 K, Small sample (50 mg) DSC	104.81
189.15 K, Small sample (50 mg) DSC	105.65
190 K, relaxation calorimetry	110.37
190.15 K, Small sample (50 mg) DSC	106.41
191.15 K, Small sample (50 mg) DSC	107.06
191.45 K, relaxation calorimetry	111.84
192.15 K, Small sample (50 mg) DSC	107.53
193.15 K, Small sample (50 mg) DSC	107.94
194.15 K, Small sample (50 mg) DSC	108.84
195.15 K, Small sample (50 mg) DSC	109.73
196.15 K, Small sample (50 mg) DSC	110.56
197.15 K, Small sample (50 mg) DSC	111.25
198.15 K, Small sample (50 mg) DSC	111.77
199.15 K, Small sample (50 mg) DSC	112.42
200 K, relaxation calorimetry	115.34
200.15 K, Small sample (50 mg) DSC	113.07
201.15 K, Small sample (50 mg) DSC	113.73
201.6 K, relaxation calorimetry	116.2
202.15 K, Small sample (50 mg) DSC	114.29
203.15 K, Small sample (50 mg) DSC	114.78
204.15 K, Small sample (50 mg) DSC	115.4
205.15 K, Small sample (50 mg) DSC	115.95
206.15 K, Small sample (50 mg) DSC	116.45
207.15 K, Small sample (50 mg) DSC	116.98
208.15 K, Small sample (50 mg) DSC	117.43
209.15 K, Small sample (50 mg) DSC	117.85
210 K, relaxation calorimetry	120.31
210.15 K, Small sample (50 mg) DSC	118.46
211.15 K, Small sample (50 mg) DSC	119.05
211.7 K, relaxation calorimetry	120.82
212.15 K, Small sample (50 mg) DSC	119.45
213.15 K, Small sample (50 mg) DSC	120.03
214.15 K, Small sample (50 mg) DSC	120.6
215.15 K, Small sample (50 mg) DSC	120.96
216.15 K, Small sample (50 mg) DSC	121.61
217.15 K, Small sample (50 mg) DSC	122.09
218.15 K, Small sample (50 mg) DSC	122.56
219.15 K, Small sample (50 mg) DSC	123.25
220 K, relaxation calorimetry	125.28
220.15 K, Small sample (50 mg) DSC	123.79
221.15 K, Small sample (50 mg) DSC	124.32
221.79 K, relaxation calorimetry	126.14
222.15 K, Small sample (50 mg) DSC	124.76
223.15 K, Small sample (50 mg) DSC	125.31
224.15 K, Small sample (50 mg) DSC	125.9
225.15 K, Small sample (50 mg) DSC	126.32
226.15 K, Small sample (50 mg) DSC	126.8
227.15 K, Small sample (50 mg) DSC	127.31
228.15 K, Small sample (50 mg) DSC	127.86
229.15 K, Small sample (50 mg) DSC	128.26
230 K, relaxation calorimetry	130.27
230.15 K, Small sample (50 mg) DSC	128.74
231.15 K, Small sample (50 mg) DSC	129.25
231.89 K, relaxation calorimetry	131.18
232.15 K, Small sample (50 mg) DSC	129.79
233.15 K, Small sample (50 mg) DSC	130.29
234.15 K, Small sample (50 mg) DSC	130.84
235.15 K, Small sample (50 mg) DSC	131.47
236.15 K, Small sample (50 mg) DSC	132.03
237.15 K, Small sample (50 mg) DSC	132.65
238.15 K, Small sample (50 mg) DSC	133.18
239.15 K, Small sample (50 mg) DSC	133.62
240 K, relaxation calorimetry	135.27
240.15 K, Small sample (50 mg) DSC	134.1
241.15 K, Small sample (50 mg) DSC	134.58
241.92 K, relaxation calorimetry	136.06
242.15 K, Small sample (50 mg) DSC	135
243.15 K, Small sample (50 mg) DSC	135.48
244.15 K, Small sample (50 mg) DSC	135.91
245.15 K, Small sample (50 mg) DSC	136.33
246.15 K, Small sample (50 mg) DSC	136.8
247.15 K, Small sample (50 mg) DSC	137.31
248.15 K, Small sample (50 mg) DSC	137.82
249.15 K, Small sample (50 mg) DSC	138.21
250 K, relaxation calorimetry	140.29
250.15 K, Small sample (50 mg) DSC	138.96
251.15 K, Small sample (50 mg) DSC	139.41
251.99 K, relaxation calorimetry	141.26
252.15 K, Small sample (50 mg) DSC	139.85
253.15 K, Small sample (50 mg) DSC	140.35
254.15 K, Small sample (50 mg) DSC	140.97
255.15 K, Small sample (50 mg) DSC	141.49
256.15 K, Small sample (50 mg) DSC	142.02
257.15 K, Small sample (50 mg) DSC	142.62
258.15 K, Small sample (50 mg) DSC	143.2
259.15 K, Small sample (50 mg) DSC	143.78
260 K, relaxation calorimetry	145.33
260.15 K, Small sample (50 mg) DSC	144.21
261.15 K, Small sample (50 mg) DSC	144.74
262.11 K, relaxation calorimetry	146.2
262.15 K, Small sample (50 mg) DSC	145.34
263.15 K, Small sample (50 mg) DSC	145.66
